Data published in patent US20200405868A1, “GEL-FORMING POLYPEPTIDES” (priority 2018, published 2020).
Blank lines part the entries; values can stand above or below the substance they belong to. The star is where a group is joined. Palmitoyl = CCCCCCCCCCCCCCCC(=O)*

Assay: Compound gel-forming ability in water (visual inspection, tube tapping assay, tilted tube assay);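 further: peptides mixed with de-ionized water at about 22-25 °C, judged after 20 min by eye plus tube tapping (10 taps, moves counted) and 90° tilt mobility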
Type: physicochemical
Details: for gel formation at 11% w/w: 11% w/w in water; for gel formation at 20% w/w: 20% w/w in water; for gel formation in aqueous solution, 11% / propensity to form gels, wild-type counterparts, 11% / propensity to form gels, chimeric or mutated polypeptides, 11%: 11% w/w; for gel formation in aqueous solution, 20% / propensity to form gels, wild-type counterparts, 20% / propensity to form gels, chimeric or mutated polypeptides, 20%: 20% w/w; for Physical property at 11% w/w: 11% w/w in aqueous solution, room temperature; for gel formation at 6% w/w: 6% w/w in water; for gel formation in aqueous solution, 6% / propensity to form gels, chimeric or mutated polypeptides, 6%: 6% w/w

Substance: HSDAVFTDNYTRLRKQMAVKKYLNSILN [SEQ ID NO:67, reference compound]
- gel formation at 11% w/w: does not form gel
- gel formation at 20% w/w: does not form gel
- gel formation in aqueous solution, 11% (Table 3): AS/IS (AS/IS for aqueous solution or insoluble)
- gel formation in aqueous solution, 20% (Table 3): AS/IS (AS/IS for aqueous solution or insoluble)
- propensity to form gels, wild-type counterparts, 11% (Table 5): AS/IS
- propensity to form gels, wild-type counterparts, 20% (Table 5): AS/IS

Substance: Ace-RADARADARADARADA-NH2 [SEQ ID NO:142, reference compound]
- Physical property at 11% w/w (Table 2): SS (SS for semisolid gel)

Substance: Pal-VGSKAF-NH2 (Palmitoyl-VGSKAF-NH2; SMILES CCCCCCCCCCCCCCCC(=O)N[C@H](C(=O)NCC(=O)N[C@@H](CO)C(=O)N[C@@H](CCCCN)C(=O)N[C@@H](C)C(=O)N[C@@H](Cc1ccccc1)C(N)=O)C(C)C; UniProt P06881 114-119, looked up, fragment) [SEQ ID NO:132]
- Physical property at 11% w/w (Table 2): AS/IS (AS/IS for aqueous solution or insoluble)

- gel formation at 6% w/w: semisolid gel
- gel formation at 11% w/w: semisolid gel
- gel formation in aqueous solution, 6% (Table 3): SS (SS for semisolid gel)
- gel formation in aqueous solution, 11% (Table 3): SS (SS for semisolid gel)
Substance: Pal-KVQKLSAPVDPSSPHSY-miniPEG-CYFQNCPRG-NH2 [SEQ ID NO:204]
- propensity to form gels, chimeric or mutated polypeptides, 6% (Table 5): SS (An ability to form semisolid gel is represented by an SS)
- propensity to form gels, chimeric or mutated polypeptides, 11% (Table 5): SS (An ability to form semisolid gel is represented by an SS)

Substance: Pal-KVQKLAHQSAPVDPSSPHSY-NH2 [SEQ ID NO:105]
- Physical property at 11% w/w (Table 2): AS/IS (AS/IS for aqueous solution or insoluble)

- gel formation at 6% w/w: liquid gel
Substance: Pal-HSYVMGHFRWDRF-NH2 [SEQ ID NO:260]

Substance: SLRRSSCFGGRMDRIGAQSGLGCNSFRY-NH2 [SEQ ID NO:41, reference compound]
- gel formation at 11% w/w: does not form gel
- gel formation at 20% w/w: does not form gel
- Physical property at 11% w/w (Table 1): AS/IS
- gel formation in aqueous solution, 11% (Table 3): AS/IS (AS/IS for aqueous solution or insoluble)
- gel formation in aqueous solution, 20% (Table 3): AS/IS (AS/IS for aqueous solution or insoluble)
- propensity to form gels, wild-type counterparts, 11% (Table 5): AS/IS
- propensity to form gels, wild-type counterparts, 20% (Table 5): AS/IS

- Physical property at 11% w/w (Table 1): AS/IS
- propensity to form gels, wild-type counterparts, 11% (Table 5): AS/IS
Substance: (D-Nal)-(D-Cpa)-(D-Pal)-SY-(D-Cit)-LRP-(D-Ala)-NH2 [SEQ ID NO:27, reference compound]
- gel formation in aqueous solution, 11% (Table 3): AS/IS (AS/IS for aqueous solution or insoluble)

Substance: Pal-KVQKLNFVPTNVGSKAF-NH2 [SEQ ID NO:135]
- Physical property at 11% w/w (Table 2): AS/IS (AS/IS for aqueous solution or insoluble)

- gel formation in aqueous solution, 20% (Table 3): SS (SS for semisolid gel)
Substance: Pal-SSPHSY-miniPEG -SYS-Nle-EH-(D-Phe)-RWGKPV-NH2 [SEQ ID NO:223]

- gel formation at 6% w/w: semisolid gel
- gel formation at 11% w/w: semisolid gel
- gel formation at 20% w/w: semisolid gel
- Physical property at 11% w/w (Table 1): SS (SS for semisolid gel)
- gel formation in aqueous solution, 6% (Table 3): SS (SS for semisolid gel)
- gel formation in aqueous solution, 11% (Table 3): SS (SS for semisolid gel)
- gel formation in aqueous solution, 20% (Table 3): SS (SS for semisolid gel)
Substance: Pal-RQSMNNFQGLRSFGCRFGTCTVQKLAHQIYQFTDKDKDNVAPRSKISPQGY-NH2 [SEQ ID NO:274]
- propensity to form gels, chimeric or mutated polypeptides, 6% (Table 5): SS (An ability to form semisolid gel is represented by an SS)
- propensity to form gels, chimeric or mutated polypeptides, 11% (Table 5): SS (An ability to form semisolid gel is represented by an SS)
- propensity to form gels, chimeric or mutated polypeptides, 20% (Table 5): SS (An ability to form semisolid gel is represented by an SS)

- gel formation at 30% w/w (30% w/w in water): form gel
- gel formation in aqueous solution, 30% (Table 3, 30% w/w): SS (SS for semisolid gel)
Substance: Pal-SSPHSY-miniPEG-RC-(D-Ala)-H-(D-Phe)-RWC-NH2. [SEQ ID NO:227]
- gel formation in aqueous solution, 11% (Table 3): AS/IS (AS/IS for aqueous solution or insoluble)

Substance: Ace-KVQKLSAPVDPSSPHSY-NH2 [SEQ ID NO:115]
- Physical property at 11% w/w (Table 2): AS/IS (AS/IS for aqueous solution or insoluble)

- Physical property at 11% w/w (Table 2): SS (SS for semisolid gel)
Substance: (Lauric acid)-SSPHSY-NH2 [SEQ ID NO:122]

Substance: Pal-VQKLAHQIYQFTDKDVAPRSKISPQGY-NH2 (Palmitoyl-VQKLAHQIYQFTDKDVAPRSKISPQGY-NH2; SMILES CCCCCCCCCCCCCCCC(=O)N[C@H](C(=O)N[C@@H](CCC(N)=O)C(=O)N[C@@H](CCCCN)C(=O)N[C@@H](CC(C)C)C(=O)N[C@@H](C)C(=O)N[C@@H](Cc1c[nH]cn1)C(=O)N[C@@H](CCC(N)=O)C(=O)N[C@H](C(=O)N[C@@H](Cc1ccc(O)cc1)C(=O)N[C@@H](CCC(N)=O)C(=O)N[C@@H](Cc1ccccc1)C(=O)N[C@H](C(=O)N[C@@H](CC(=O)O)C(=O)N[C@@H](CCCCN)C(=O)N[C@@H](CC(=O)O)C(=O)N[C@H](C(=O)N[C@@H](C)C(=O)N1CCC[C@H]1C(=O)N[C@@H](CCCNC(=N)N)C(=O)N[C@@H](CO)C(=O)N[C@@H](CCCCN)C(=O)N[C@H](C(=O)N[C@@H](CO)C(=O)N1CCC[C@H]1C(=O)N[C@@H](CCC(N)=O)C(=O)NCC(=O)N[C@@H](Cc1ccc(O)cc1)C(N)=O)[C@@H](C)CC)C(C)C)[C@@H](C)O)[C@@H](C)CC)C(C)C) [SEQ ID NO:102]
- Physical property at 11% w/w (Table 2): AS/IS (AS/IS for aqueous solution or insoluble)

Substance: Pal-SSPHSY-miniPEG-(D-Ala)-(D-(β-naphthyl))-AAW-(D-Phe)-Lys-NH2 [SEQ ID NO:235]
- gel formation at 3% w/w (3% w/w in water): semisolid gel
- gel formation at 6% w/w: semisolid gel
- gel formation at 11% w/w: semisolid gel
- gel formation in aqueous solution, 3% (Table 3, 3% w/w): SS (SS for semisolid gel)
- gel formation in aqueous solution, 6% (Table 3): SS (SS for semisolid gel)
- gel formation in aqueous solution, 11% (Table 3): SS (SS for semisolid gel)
- propensity to form gels, chimeric or mutated polypeptides, 3% (Table 5, 3% w/w): SS (An ability to form semisolid gel is represented by an SS)
- propensity to form gels, chimeric or mutated polypeptides, 6% (Table 5): SS (An ability to form semisolid gel is represented by an SS)
- propensity to form gels, chimeric or mutated polypeptides, 11% (Table 5): SS (An ability to form semisolid gel is represented by an SS)

- Physical property at 11% w/w (Table 2): SS (SS for semisolid gel)
Substance: (Myristic acid)-SSPHSY-NH2 [SEQ ID NO:123]

- gel formation at 11% w/w: semisolid gel
- gel formation in aqueous solution, 11% (Table 3): SS (SS for semisolid gel)
Substance: Pal-SDAAVDTSSEITTKDLKEKKEVVEEAEN-NH2 [SEQ ID NO:268]
- propensity to form gels, chimeric or mutated polypeptides, 11% (Table 5): SS (An ability to form semisolid gel is represented by an SS)

Substance: Pal-KVQKLSAPVDPSSPHSY-miniPEG-Y-(D-Met)-FHLMD-NH2 [SEQ ID NO:210]
- gel formation at 6% w/w: semisolid or liquid gel
- gel formation at 11% w/w: semisolid gel
- gel formation in aqueous solution, 6% (Table 3): SS (SS for semisolid gel)
- gel formation in aqueous solution, 11% (Table 3): SS (SS for semisolid gel)
- propensity to form gels, chimeric or mutated polypeptides, 6% (Table 5): SS (An ability to form semisolid gel is represented by an SS)
- propensity to form gels, chimeric or mutated polypeptides, 11% (Table 5): SS (An ability to form semisolid gel is represented by an SS)

- gel formation at 11% w/w: liquid gel
- gel formation at 20% w/w: semisolid gel
- gel formation in aqueous solution, 20% (Table 3): SS (SS for semisolid gel)
Substance: Pal-SSPHSY-miniPEG-VGVAPG-NH2 [SEQ ID NO:248]
- propensity to form gels, chimeric or mutated polypeptides, 20% (Table 5): SS (An ability to form semisolid gel is represented by an SS)

Substance: Ace-TVQKLAHQIYQFTDKDKDNVAPRSKISPQGY-NH2 [SEQ ID NO:101]
- Physical property at 11% w/w (Table 2): AS/IS (AS/IS for aqueous solution or insoluble)
